What all share (type): in vivo
The subject of assay [1] is Alternaria solani. Put plainly: Alternaria solani test in tomato (preventive, glasshouse).
The test system of assay [2] is Phakopsora pachyrhizi. Description: Phakopsora pachyrhizi test in soybean (preventive, glasshouse). Conditions: single compound.
Assay [3] concerns Septoria nodorum. Description: Parastagonospora nodorum/Septoria nodorum/Stagnospora nodorum test in wheat (preventive, glasshouse). The settings on record: single compound. The protocol:
The single compounds or compound combinations were dissolved in 2% DMSO/Acetone and then mixed with water containing emulsifier to a calibrated spray volume of 50 mL. The spray solutions were poured into spray bottles for further applications.
To test the preventive activity of compounds, healthy young wheat plants, raised in the greenhouse, were sprayed with the single compound or mixture preparation at the stated application rates inside the spray cabinets using hollow cone nozzles. One day after treatment, the plants were inoculated with a suspension containing 2.8×10^6 Stagnospora nodorum inoculum. The inoculated plants were then kept in a greenhouse chamber at 22-25° C. temperature and 90-100% relative humidity for disease expression.
A visual assessment of the performance of the compounds and respective compound combinations was carried out by rating the disease severity (0-100% scale) on treated plants 3, 7 and 10 days after application. Efficacy (% control) of the compounds was calculated by comparing the disease rating in the treatment with the one of the untreated control. The compounds were also assessed for their plant compatibility by recording symptoms like necrosis, chlorosis & stunting. The results are shown for the compound of formula (I-1) to (I-5) in Table E1-E5.

In assay [4] the test system is Pyricularia oryzae. Description: whole plant or invertebrate. Conditions: Pyricularia oryzae, read-out: Observed Efficacy.
Assay [5] has as its system Botrytis cinerea. Description: Botrytis cinerea test in tomato (preventive, glasshouse). The settings on record: single compound.
In assay [6] the test system is Erysiphe cichoracearum. Description: Erysiphe cichoracearum test in cucumber (preventive, glasshouse). The settings on record: single compound; for pest or weed control at 0.05 ppm / pest or weed control at 0.1 ppm: Golovinomyces cichoracearum, read-out: Observed Efficacy (%).
Where [7] appears, read: Alternaria solani, single compound, 0.05 ppm, preventive spray, read-out: Observed Efficacy (%).
Where [8] appears, read: Alternaria solani, single compound, 0.1 ppm, preventive spray, read-out: Observed Efficacy (%).
The mark [9] stands for this setting: Table B4, single compound, Conc. 0.1 ppm, preventive.
Setting [10] is: single compound, 0.05 ppm, preventive.
Setting [11] is: single compound, 0.1 ppm, preventive.
Where [12] appears, read: Phakopsora pachyrhizi, 0.1 ppm, preventive spray on soybean, read-out: Observed Efficacy (%).
Setting [13] is: Conc. 0.1 ppm, soybean, preventive, Table D4.
Setting [14] is: Conc. 0.1 ppm, soybean, preventive, Table D5.
[15] abbreviates: Parastagonospora nodorum, 0.1 ppm, read-out: Observed Efficacy (%).
Setting [16] is: Botrytis cinerea, Conc. 0.05 ppm, preventive spray on tomato, % control vs untreated, read-out: Observed Efficacy (%).
[17] abbreviates: Botrytis cinerea, Conc. 0.1 ppm, preventive spray on tomato, % control vs untreated, read-out: Observed Efficacy (%).
The mark [18] stands for this setting: Table F4, Conc. 0.05 ppm, Botrytis cinerea in tomato, preventive.
The mark [19] stands for this setting: Table F4, Conc. 0.1 ppm, Botrytis cinerea in tomato, preventive.
The mark [20] stands for this setting: Table B3, single compound, Conc. 0.05 ppm, preventive.
Setting [21] is: Table B3, single compound, Conc. 0.1 ppm, preventive.
[22] abbreviates: Table B4, single compound, Conc. 0.05 ppm, preventive.
Setting [23] is: 0.05 ppm, preventive spray on cucumber.
Setting [24] is: 0.1 ppm, preventive spray on cucumber.
Setting [25] is: Phakopsora pachyrhizi, 0.05 ppm, preventive spray on soybean, read-out: Observed Efficacy (%).
Where [26] appears, read: Conc. 0.05 ppm, soybean, preventive, Table D4.
[27] abbreviates: Conc. 0.05 ppm, soybean, preventive, Table D5.
Where [28] appears, read: single compound, 0.05 ppm, preventive spray.
[29] abbreviates: single compound, 0.1 ppm, preventive spray.
[30] abbreviates: 0.05 ppm, preventive spray on soybean.
The mark [31] stands for this setting: 0.1 ppm, preventive spray on soybean.
Where [32] appears, read: Table F5, Conc. 0.05 ppm, Botrytis cinerea in tomato, preventive.
Setting [33] is: Table F5, Conc. 0.1 ppm, Botrytis cinerea in tomato, preventive.
Where [34] appears, read: Conc. 0.05 ppm, preventive spray on tomato, % control vs untreated.
[35] abbreviates: Conc. 0.1 ppm, preventive spray on tomato, % control vs untreated.

This is an account of results in patent publication US20230413824A1, “AGROCHEMICAL COMPOSITION COMPRISING 3-SUBSTITUTED PHENYLAMIDINE COMPOUNDS AND USE THEREOF” (PI INDUSTRIES LIMITED, priority 2020, published 2023).

“And” between values parts separate entries of the source, which are not always exact repeats. Equal entries are not always repeated. Where two headings read alike, the source gives them in different places.

In the case of `CCN(C)C=Nc1cc(C)cc(Cc2ccc(C)cc2)c1C` [Compound (I-2), N′-(2,5-dimethyl-3-(4-methylbenzyl)phenyl)-N-ethyl-N-methylformimidamide], the pest or weed control at 1 ppm in assay [1] (Alternaria solani, single compound, 1 ppm, preventive spray, read-out: Observed Efficacy (%)) amounted to 13%; in assay [3] (Parastagonospora nodorum, 1 ppm, read-out: Observed Efficacy (%)) it was 13%; in assay [4] it was 13%; in assay [5] (Botrytis cinerea, Conc. 1 ppm, preventive spray on tomato, % control vs untreated, read-out: Observed Efficacy (%)), 23%. Besides, the pest or weed control at 5 ppm in assay [1] (Alternaria solani, single compound, 5 ppm, preventive spray, read-out: Observed Efficacy (%)) came out at 23%; in assay [3] (Parastagonospora nodorum, 5 ppm, read-out: Observed Efficacy (%)), 23%; in assay [4] it was 23%; in assay [5] (Botrytis cinerea, Conc. 5 ppm, preventive spray on tomato, % control vs untreated, read-out: Observed Efficacy (%)) it was 33%. In addition, the pest or weed control at 20 ppm in assay [1] (Alternaria solani, single compound, 20 ppm, preventive spray, read-out: Observed Efficacy (%)) worked out at 33%; in assay [3] (Parastagonospora nodorum, 20 ppm, read-out: Observed Efficacy (%)), 33%; in assay [4] it was 37%; in assay [5] (Botrytis cinerea, Conc. 20 ppm, preventive spray on tomato, % control vs untreated, read-out: Observed Efficacy (%)), 53%. The pest or weed control at 0.0001 ppm in assay [2] (Phakopsora pachyrhizi, 0.0001 ppm, preventive spray on soybean, read-out: Observed Efficacy (%)) was 47%. For the same compound, the pest or weed control at 0.001 ppm in assay [2] (Phakopsora pachyrhizi, 0.001 ppm, preventive spray on soybean, read-out: Observed Efficacy (%)) was 57%. In assay [2] (Phakopsora pachyrhizi, 0.01 ppm, preventive spray on soybean, read-out: Observed Efficacy (%)), the pest or weed control at 0.01 ppm was 68%.
With `CC1COC(Cn2cncn2)(c2ccc(Oc3ccc(Cl)cc3)cc2Cl)O1` (centres unmarked) [Difenconazole, difenoconazole], the pest or weed control at 0.05 ppm in assay [1] (setting [7]) was determined as 42%; in assay [1] (Alternaria solani, single compound, Conc. 0.05 ppm, preventive spray, read-out: Observed Efficacy) it was 42%; in assay [2] (Phakopsora pachyrhizi, Conc. 0.05 ppm, soybean, preventive, Table D4, read-out: Observed Efficacy (%)), 17%; in assay [4], 24%; in assay [5] (setting [16]), 42%. For the same compound, the pest or weed control at 0.1 ppm in assay [1] (setting [8]) stood at 47%; in assay [1] (Alternaria solani, single compound, Conc. 0.1 ppm, preventive spray, read-out: Observed Efficacy), 47%; in assay [2] (setting [12]), 24%; in assay [3] (setting [15]), 32%; in assay [4] it was 26%; in assay [5] (setting [17]), 52%. For the same compound, the “Observed Efficacy (%)” value in assay [1] (setting [9]) is given as 47%; in assay [1] (setting [10]), 42%; in assay [1] (setting [11]) it was 47%; in assay [2] (setting [13]), 24%; in assay [2] (setting [14]), 24%; in assay [5] (setting [18]), 42%. For the same compound, the “Observed Efficacy (%)” value in assay [5] (setting [19]) was 52%.
On to `O=[N+]([O-])c1cc(C(F)(F)F)c(Cl)c([N+](=O)[O-])c1Nc1ncc(C(F)(F)F)cc1Cl` [Fluazinam], for which the pest or weed control at 0.05 ppm in assay [1] (setting [7]) is 7%; in assay [6] (0.05 ppm, cucumber, preventive), 11%; in assay [2] (setting [25]) it was 2%; in assay [5] (setting [16]) it was 29%. Moreover, the pest or weed control at 0.1 ppm in assay [1] (setting [8]) was found to be 16%; in assay [6] (0.1 ppm, cucumber, preventive), 18%; in assay [2] (setting [12]), 10%; in assay [3] (setting [15]), 21%; in assay [5] (setting [17]), 38%. Moreover, the “Observed Efficacy (%)” value in assay [1] (setting [20]) amounted to 7%; in assay [1] (setting [21]) it was 16%; in assay [1] (setting [22]), 7%; in assay [1] (setting [9]) it was 16%; in assay [1] (setting [10]) it was 7%; in assay [1] (setting [11]) it was 16%. In addition, the “Observed Efficacy (%)” value in assay [6] (setting [23]) was 11%; in assay [6] (setting [24]), 18%; in assay [2] (setting [26]), 2%; in assay [2] (setting [27]), 2%; in assay [2] (setting [13]), 10%; in assay [2] (setting [14]), 10%. The “Observed Efficacy (%)” value in assay [5] (setting [18]) is 29%; in assay [5] (setting [19]) it was 38%.
Take `O=C(NCCc1ncc(C(F)(F)F)cc1Cl)c1ccccc1C(F)(F)F` [Fluopyram]: the pest or weed control at 0.05 ppm was determined as 26% in assay [1] (setting [7]); 32% in assay [6] (setting [23]); 7% in assay [2] (setting [25]); 8% in assay [3] (Parastagonospora nodorum, 0.05 ppm, read-out: Observed Efficacy (%)); 38% in assay [5] (setting [16]). In addition, the pest or weed control at 0.1 ppm in assay [1] (setting [8]) turned out to be 35%; in assay [6] (setting [24]), 39%; in assay [2] (setting [12]), 10%; in assay [3] (setting [15]), 21%; in assay [5] (setting [17]), 45%. In addition, the “Observed Efficacy (%)” value in assay [1] (setting [20]) is reported as 26%; in assay [1] (setting [21]), 35%; in assay [1] (setting [22]), 26%; in assay [1] (setting [9]), 35%; in assay [1] (setting [10]) it was 26%; in assay [1] (setting [11]), 35%. Moreover, the “Observed Efficacy (%)” value stood at 7% in assay [2] (setting [26]); 7% in assay [2] (setting [27]); 10% in assay [2] (setting [13]); 10% in assay [2] (setting [14]); 38% in assay [5] (setting [18]); 45% in assay [5] (setting [19]).
Consider `C[C@@H]1CC(C)(C)c2cccc(NC(=O)c3cn(C)nc3C(F)F)c21` [Inpyrfluxam], for which the “Observed Efficacy (%)” value in assay [1] (setting [22]) stood at 14%; in assay [1] (setting [9]), 23%; in assay [1] (setting [28]) it was 14%; in assay [1] (setting [29]), 23%; in assay [6] (0.05 ppm, cucumber, preventive), 29%; in assay [6] (setting [23]) it was 29%. The “Observed Efficacy (%)” value in assay [6] (0.1 ppm, cucumber, preventive) turned out to be 38%; in assay [6] (setting [24]) it was 38%; in assay [2] (setting [30]) it was 18%; in assay [2] (setting [31]) it was 30%; in assay [2] (setting [26]) it was 18%; in assay [2] (setting [13]), 30%. In addition, the “Observed Efficacy (%)” value in assay [3] (0.05 ppm) worked out at 12%; in assay [3] (0.1 ppm), 29%; in assay [5] (setting [18]), 25%; in assay [5] (setting [19]) it was 38%; in assay [5] (setting [32]) it was 25%; in assay [5] (setting [33]) it was 38%. For the same compound, the “Observed Efficacy (%)” value is 35% and 25% in assay [5] (setting [34]); 38% in assay [5] (setting [35]).
As for propineb, the “Observed Efficacy (%)” value in assay [1] (setting [22]) was 20%; in assay [1] (setting [9]), 31%; in assay [1] (setting [10]) it was 20%; in assay [1] (setting [28]), 20%; in assay [1] (setting [29]) it was 31%; in assay [6] (0.05 ppm, cucumber, preventive) it was 14%. The “Observed Efficacy (%)” value is 14% in assay [6] (setting [23]); 43% in assay [6] (0.1 ppm, cucumber, preventive); 43% in assay [6] (setting [24]); 20% in assay [2] (setting [30]); 33% in assay [2] (setting [31]); 20% in assay [2] (setting [26]). The “Observed Efficacy (%)” value in assay [2] (setting [27]) is reported as 20%; in assay [2] (setting [13]), 33%; in assay [2] (setting [14]) it was 33%; in assay [3] (0.05 ppm) it was 12%; in assay [3] (0.1 ppm), 24%; in assay [5] (setting [18]), 15%. Moreover, the “Observed Efficacy (%)” value in assay [5] (setting [19]) stood at 22%; in assay [5] (setting [32]), 15%; in assay [5] (setting [33]), 22%; in assay [5] (setting [34]) it was 15%; in assay [5] (setting [35]), 22%. In assay [1] (single compound, Conc. 0.05 ppm, preventive spray), the “Observed Efficacy” value is on record as 20%.
